Test results published in patent publication US20250236613A1, “SARM1 MODULATORS, PREPARATIONS, AND USES THEREOF” (SIRONAX LTD., priority 2021, published 2025).

Molecular target: SARM1 (50-724) (Homo sapiens (Human), UniProt Q6SZW1)
Test: SARM1 (50-724) enzymatic assay
Assay type: biochemical
Settings: SARM1 inhibitory activity; 2 nM SARM1 (50-724), 200 μM NMN activator, 100 μM NAD+ substrate, 1 h, LC-MS/MS
Protocol: The enzymatic assay was performed in a 384-well plate using Dulbecco's PBS buffer as the reaction buffer. Purified SARM1 (50-724) with a final concentration of 2 nM was pre-incubated with the test compound at 1% DMSO final assay concentration for 15 min at room temperature. The reaction was initiated by adding the mixture of 200 μM NMN as activator and 100 μM NAD^+ as substrate. After 1 h of incubation at room temperature, the reaction was terminated with 10 times volume of 70% acetonitrile, then centrifuged at 3800 rpm for 10 min. The samples were analyzed using LC-MS/MS after diluted to the proper concentration by 10 mM ammonium acetate (pH 9.75).

Chain of SARM1 (50-724) (Q6SZW1 50-724): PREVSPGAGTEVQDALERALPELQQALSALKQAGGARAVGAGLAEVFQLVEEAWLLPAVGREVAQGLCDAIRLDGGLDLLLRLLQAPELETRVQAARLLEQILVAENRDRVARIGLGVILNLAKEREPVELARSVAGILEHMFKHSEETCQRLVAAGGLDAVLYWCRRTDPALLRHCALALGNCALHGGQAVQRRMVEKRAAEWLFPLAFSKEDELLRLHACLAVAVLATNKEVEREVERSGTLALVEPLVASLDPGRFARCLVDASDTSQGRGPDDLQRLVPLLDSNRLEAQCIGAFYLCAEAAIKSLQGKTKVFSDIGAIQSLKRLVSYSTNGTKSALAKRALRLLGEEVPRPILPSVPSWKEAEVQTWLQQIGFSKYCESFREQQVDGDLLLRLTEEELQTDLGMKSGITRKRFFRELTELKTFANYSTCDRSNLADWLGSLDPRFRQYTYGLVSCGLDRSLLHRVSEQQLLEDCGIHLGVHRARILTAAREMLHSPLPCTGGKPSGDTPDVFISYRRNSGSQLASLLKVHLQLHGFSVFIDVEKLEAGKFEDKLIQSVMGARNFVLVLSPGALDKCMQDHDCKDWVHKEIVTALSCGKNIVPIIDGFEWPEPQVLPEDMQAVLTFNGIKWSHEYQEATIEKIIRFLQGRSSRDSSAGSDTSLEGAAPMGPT

Structure (SMILES) | IC50 [µM]
Cc1cc(Cl)ncc1-c1ccc2[nH]c(=O)oc2c1 [Compound 66, 6-(6-chloro-4-methylpyridin-3-yl)benzo[d]oxazol-2(3H)-one] | 15 to 30
Cc1ccncc1-c1ccc2c(c1F)NC(=O)C2=O [Compound 37, 7-fluoro-6-(4-methylpyridin-3-yl)indoline-2,3-dione] | 5 to 15
Cc1ccncc1-c1ccc2cc[nH]c2c1 [Compound 23, 6-(4-methylpyridin-3-yl)-1H-indole] | 15 to 30
Cc1ccncc1-c1ccc2c(c1)NC(=O)CO2 [Compound 51, 6-(4-methylpyridin-3-yl)-2H-benzo[b][1,4]oxazin-3(4H)-one] | < 5
Cc1ccncc1-c1ccc2[nH]nc(C#N)c2c1 [Compound 92, 5-(4-methylpyridin-3-yl)-1H-indazole 3-carbonitrile] | < 5
Cc1ccncc1-c1cc(O)cc(F)c1 [Compound 20, 3-fluoro-5-(4-methylpyridin-3-yl)phenol] | < 5
Cc1ccncc1-c1cccc(C(F)F)c1 [Compound 62, 3-(3-(difluoromethyl)phenyl)-4-methylpyridine] | < 5
CC(=O)Nc1nc2cc(-c3cnccc3C)ccc2[nH]1 [Compound 73, N-(5-(4-methylpyridin-3-yl)-1H-benzo[d]imidazol-2-yl)acetamide] | < 5
CC(C)(C)OC(=O)N1CCCc2ccc(Nc3cncc(-c4ccc5[nH]c(=O)oc5c4)c3)cc21 [Compound 106, tert-butyl 7-((5-(2-oxo-2,3-dihydrobenzo[d]oxazol-6-yl)pyridin-3-yl)amino)-3,4-dihydroquinoline-1(2H)-carboxylate] | < 5
Cc1ccncc1-c1ccc(F)c(O)c1F [Compound 35, 2,6-difluoro-3-(4-methylpyridin-3-yl)phenol] | > 30
Cc1ncncc1-c1ccc2[nH]c(=O)oc2c1 [Compound 78, 6-(4-methylpyrimidin-5-yl)benzo[d]oxazol-2(3H)-one] | > 30
O=c1[nH]c2ccc(-c3cncc(Nc4ccc(F)cc4)c3)cc2o1 [Compound 100, 6-(5-((4-fluorophenyl)amino)pyridin-3-yl)benzo[d]oxazol-2(3H)-one] | < 5
COc1cc(-c2cnccc2C)ccc1O [Compound 30, 2-methoxy-4-(4-methylpyridin-3-yl)phenol] | > 30
Cc1ccc(Nc2cncc(-c3ccc4[nH]c(=O)oc4c3)c2)cc1 [Compound 98, 6-(5-(p-tolylamino)pyridin-3-yl)benzo[d]oxazol-2(3H)-one] | < 5
O=c1[nH]c2ccc(-c3cncc(Oc4ccccc4)c3)cc2o1 [Compound 119, 6-(5-phenoxypyridin-3-yl)benzo[d]oxazol-2(3H)-one] | < 5
Cc1ccncc1-c1ccc2[nH]nc(N)c2c1 [Compound 65, 5-(4-methylpyridin-3-yl)-1H-indazol-3-amine] | > 30
Cc1ccncc1-c1cccc(O)c1C [Compound 26, 2-methyl-3-(4-methylpyridin-3-yl)phenol] | > 30
Cc1ccncc1-c1ccc2c(c1)OCCN2 [Compound 53, 7-(4-methylpyridin-3-yl)-3,4-dihydro-2H-benzo[b][1,4]oxazine] | > 30
Cc1ccncc1-c1ccc2[nH]nc(C(F)(F)F)c2c1 [Compound 93, 5-(4-methylpyridin-3-yl)-3-(trifluoromethyl)-1H-indazole] | 5 to 15

Structure (SMILES) | IC50 [µM]
CNc1cncc(-c2ccc3[nH]c(=O)oc3c2)c1 [Compound 110, 6-(5-(methylamino)pyridin-3-yl)benzo[d]oxazol-2(3H)-one] | < 5
Cc1ccncc1-c1cccc(S(N)(=O)=O)c1 [Compound 7, 3-(4-methylpyridin-3-yl)benzenesulfonamide] | < 5
Cc1ccncc1-c1ccc(Br)c(O)c1 [Compound 17, 2-bromo-5-(4-methylpyridin-3-yl)phenol] | < 5
Cc1ccncc1-c1ccc2c(c1)NCCO2 [Compound 54, 6-(4-methylpyridin-3-yl)-3,4-dihydro-2H-benzo[b][1,4]oxazine] | 15 to 30
COc1ccncc1-c1cc[nH]c(=O)c1 [Compound 3, 4-methoxy-[3,4′-bipyridin]-2′(1′H)-one] | < 5
Cc1ccncc1-c1ccc(F)c(O)c1 [Compound 19, 2-fluoro-5-(4-methylpyridin-3-yl)phenol] | 5 to 15
Cc1ccncc1-c1ccc2oc(=O)[nH]c2c1 [Compound 52, 5-(4-methylpyridin-3-yl)benzo[d]oxazol-2(3H)-one] | 5 to 15
Cc1cc(-c2cnccc2C)ccc1O [Compound 28, 2-methyl-4-(4-methylpyridin-3-yl)phenol] | < 5
Cc1ccncc1-c1cc(O)ccc1F [Compound 14, 4-fluoro-3-(4-methylpyridin-3-yl)phenol] | > 30
O=c1[nH]c2ccc(-c3cncc(Nc4ccc5c(c4)NCCC5)c3)cc2o1 [Compound 99, 6-(5-((1,2,3,4-tetrahydroquinolin-7-yl)amino)pyridin-3-yl)benzo[d]oxazol-2(3)-one] | < 5
O=c1[nH]c2ccc(-c3cncc(Nc4cccnn4)c3)cc2o1 [Compound 118, 6-(5-(pyridazin-3-ylamino)pyridin-3-yl)benzo[d]oxazol-2(3H)-one] | < 5
Cc1ccncc1-c1ccc2[nH]c(=O)oc2c1 [Compound 40, 6-(4-methylpyridin-3-yl)benzo[d]oxazol-2(3H)-one] | < 5
Cc1ccncc1-c1ccc(O)c(O)c1F [Compound 39, 3-fluoro-4-(4-methylpyridin-3-yl)benzene-1,2-diol] | 15 to 30
O=c1[nH]c2ccc(-c3cc(Nc4ccccc4)cnn3)cc2o1 [Compound 112, 6-(5-(phenylamino)pyridazin-3-yl)benzo[d]oxazol-2(3H)-one] | < 5
O=c1[nH]c2ccc(-c3cncc(Nc4cncnc4)c3)cc2o1 [Compound 114, 6-(5-(pyrimidin-5-ylamino)pyridin-3-yl)benzo[d]oxazol-2(3H)-one] | < 5
Cc1ccncc1-c1ccc(O)c(Cl)c1 [Compound 31, 2-chloro-4-(4-methylpyridin-3-yl)phenol] | < 5
O=c1[nH]c2ccc(-c3cncc(Nc4cccc(Cl)c4)c3)cc2o1 [Compound 96, 6-(5-((3-chlorophenyl)amino)pyridin-3-yl)benzo[d]oxazol-2(3H)-one] | < 5
N#Cc1cccc(Nc2cncc(-c3ccc4[nH]c(=O)oc4c3)c2)c1 [Compound 107, 3-((5-(2-oxo-2,3-dihydrobenzo[d]oxazol-6-yl)pyridin-3-yl)amino)benzonitrile] | < 5
